Assay results as given in patent US20220395549A1, “COMPOSITIONS OF THE OLEA EUROPAEA V. SYLVESTRIS WITH ANTIMICROBIAL EFFICACY” (TAPROGGE GMBH, priority 2019, published 2022).

Tested on: S. aureus ATCC 6538
Experiment: quantitative suspension assay of mono-substances
Format: cell-based, Staphylococcus aureus
Conditions: for Number of CFUs: initial cell load 9.9 × 10^4 CFU/ml
Method: A stock solution was prepared by adding 0.1 ml methanol to 10.48 mg of hydroxytyrosol. After dissolving of the compound, the solution was quantitatively transferred into 4.9 ml water for injection (WFI), effective concentration of hydroxytyrosol: 2.0 mg/ml.
Using the stock solution, five (5) concentrations of hydroxytyrosol in a geometric series of 2 mg hydroxytyrosol/ml to 0.125 mg hydroxytyrosol/ml were tested in a quantitative suspension assay.
2 ml of the stock solution and the dilutions (V1 to V4), respectively, and a methanol-solution of 2% as a positive control were inoculated with 0.1 ml of a test suspension of S. aureus ATCC 6538, adjusted to about 2.0×10^5 CFU/0.1 ml, resulting in about 100,000 CFU/ml in the individual assays.
Samples (0.1 ml) were then taken at t 0, 12, 30, and 60 minutes as well as t 24 48, and 72 hours after inoculation and culturing at between 20-25° C., and were diluted with 0.9 ml of 0.9% NaCl solution. The samples were plated on blood agar plates, and incubated up to 5 days at between 30-35° C.
A stock solution was prepared at a concentration of 2 mg/ml of oleocanthal. The compound was dissolved by in ethanol (99.8%) and WFI was added.
Using the stock solution, concentrations of oleocanthal in a geometric series of 1 mg oleocanthal/ml to 0.125 mg oleocanthal/ml were tested in a quantitative suspension assay.
2 ml of the stock solution and the dilutions (V1 to V4), respectively, and a ethanol-solution of 2.85% as a positive control were inoculated with 0.055 ml of a test suspension of S. aureus ATCC 6538, adjusted to about 3.6×10^5 CFU/0.1 ml, resulting in about 99,000 CFU/ml in the individual assays.
A stock solution was prepared at a concentration of 1 mg/ml of oleacin. The compound was dissolved by in ethanol (99.8%) and WFI was added.
Using the stock solution, concentrations of oleacin at 0.25 mg oleacin/ml and 0.125 mg oleacin/ml were tested in a quantitative suspension assay.
2 ml of the stock solution and the dilutions (V1 and V2), respectively, and a ethanol-solution of 0.44% as a positive control were inoculated with 0.055 ml of a test suspension of S. aureus ATCC 6538, adjusted to about 3.5×10^5 CFU/0.1 ml, resulting in about 99,000 CFU/ml in the individual assays.
A stock solution was prepared by adding 0.1 ml chloroform to 25 mg of uvaol. After dissolving of the compound, the solution was quantitatively transferred into 12.4 ml water for injection (WFI), effective concentration of uvaol: 2.0 mg/ml.
Using the stock solution, five (5) concentrations of uvaol in a geometric series of 2 mg uvaol/ml to 0.125 mg uvaol/ml were tested in a quantitative suspension assay.
2 ml of the stock solution and the dilutions (V1 to V4), respectively, and a chloroform-solution of 0.8% as a positive control were inoculated with 0.1 ml of a test suspension of S. aureus ATCC 6538, adjusted to about 2.0×10^5 CFU/0.1 ml, resulting in about 100,000 CFU/ml in the individual assays.
A stock solution was prepared by adding 0.1 ml chloroform to 10.45 mg of erythrodiol. After dissolving of the compound, the solution was quantitatively transferred into 4.9 ml water for injection (WFI), effective concentration of erythrodiol: 2.0 mg/ml.
2 ml of the stock solution and the dilutions (V1 to V4), respectively, and a chloroform-solution of 2% as a positive control were inoculated with 0.1 ml of a test suspension of S. aureus ATCC 6538, adjusted to about 3.6×10^5 CFU/0.1 ml, resulting in about 100.000 CFU/ml in the individual assays.

## C/C=C(/C=O)[C@@H](CC=O)CC(=O)OCCc1ccc(O)cc1 [oleocanthal]
0.125 Ole/ml, t 0 min
  Number of CFUs: 2.0 × 10^4 CFU/ml
0.125 Ole/ml, t 12 min
  Number of CFUs: 1.6 × 10^4 CFU/ml
0.125 Ole/ml, t 30 min
  Number of CFUs: 1.6 × 10^4 CFU/ml
0.125 Ole/ml, t 60 min
  Number of CFUs: 1.1 × 10^4 CFU/ml
0.125 Ole/ml, t 24 h
  Number of CFUs: 5.4 × 10^3 CFU/ml
0.125 Ole/ml, t 48 h
  Number of CFUs: <100 CFU/ml
0.125 Ole/ml, t 72 h
  Number of CFUs: <100 CFU/ml
0.25 Ole/ml, t 0 min
  Number of CFUs: 1.7 × 10^4 CFU/ml
0.25 Ole/ml, t 12 min
  Number of CFUs: 1.8 × 10^4 CFU/ml
0.25 Ole/ml, t 30 min
  Number of CFUs: 2.0 × 10^4 CFU/ml
0.25 Ole/ml, t 60 min
  Number of CFUs: 1.6 × 10^4 CFU/ml
0.25 Ole/ml, t 24 h
  Number of CFUs: 7.2 × 10^3 CFU/ml
0.25 Ole/ml, t 48 h
  Number of CFUs: 8.3 × 10^3 CFU/ml
0.25 Ole/ml, t 72 h
  Number of CFUs: <100 CFU/ml
0.5 Ole/ml, t 0 min
  Number of CFUs: 8.3 × 10^3 CFU/ml
0.5 Ole/ml, t 12 min
  Number of CFUs: 6.1 × 10^3 CFU/ml
0.5 Ole/ml, t 30 min
  Number of CFUs: 5.1 × 10^3 CFU/ml
0.5 Ole/ml, t 60 min
  Number of CFUs: 2.4 × 10^3 CFU/ml
0.5 Ole/ml, t 24 h
  Number of CFUs: <100 CFU/ml
0.5 Ole/ml, t 48 h
  Number of CFUs: <100 CFU/ml
0.5 Ole/ml, t 72 h
  Number of CFUs: <100 CFU/ml
1.0 Ole/ml, t 0 min
  Number of CFUs: <100 CFU/ml
1.0 Ole/ml, t 12 min
  Number of CFUs: <100 CFU/ml
1.0 Ole/ml, t 30 min
  Number of CFUs: <100 CFU/ml
1.0 Ole/ml, t 60 min
  Number of CFUs: <100 CFU/ml
1.0 Ole/ml, t 24 h
  Number of CFUs: <100 CFU/ml
1.0 Ole/ml, t 48 h
  Number of CFUs: <100 CFU/ml
1.0 Ole/ml, t 72 h
  Number of CFUs: <100 CFU/ml
2.0 Ole/ml, t 0 min
  Number of CFUs: <100 CFU/ml
2.0 Ole/ml, t 12 min
  Number of CFUs: <100 CFU/ml
2.0 Ole/ml, t 30 min
  Number of CFUs: <100 CFU/ml
2.0 Ole/ml, t 60 min
  Number of CFUs: <100 CFU/ml
2.0 Ole/ml, t 24 h
  Number of CFUs: <100 CFU/ml
2.0 Ole/ml, t 48 h
  Number of CFUs: <100 CFU/ml
2.0 Ole/ml, t 72 h
  Number of CFUs: <100 CFU/ml
Detection limit of the assay 100 CFU/ml
  antimicrobial effect, summary in words: immediate effect at the higher concentrations
